Source: ChEMBL document CHEMBL3991601, “The target landscape of clinical kinase drugs” (Science, 2017)
Active and inactive are the calls of the source.

biological target: Adenosine kinase (Homo sapiens, UniProt P55263)
Also: in the data inactive means no Kd found up to 30 µM.

SMILES	Kd
CNC(=O)c1ccc(C)c(-n2c(C)cc(OCc3ccc(F)cc3F)c(Br)c2=O)c1 [PH-797804]	> 30 µM (inactive)
CNC(=O)c1cc(Oc2ccc(NC(=O)Nc3ccc(Cl)c(C(F)(F)F)c3)c(F)c2)ccn1 [REGORAFENIB]	> 30 µM (inactive)
C[C@@H](c1ccc2nccn2c1)n1nnc2ncc(-c3cnn(C)c3)nc21 [SAVOLITINIB]	> 30 µM (inactive)

biological target: Chromodomain-helicase-DNA-binding protein 4 (Homo sapiens, UniProt Q14839)

SMILES	Kd
CNC(=O)c1cc(Oc2ccc(NC(=O)Nc3ccc(Cl)c(C(F)(F)F)c3)c(F)c2)ccn1 [REGORAFENIB]	> 30 µM (inactive)

biological target: Ephrin type-A receptor 2 (Homo sapiens, UniProt P29317)

SMILES	Kd
CNC(=O)c1ccc(C)c(-n2c(C)cc(OCc3ccc(F)cc3F)c(Br)c2=O)c1 [PH-797804]	> 30 µM (inactive)
CNC(=O)c1cc(Oc2ccc(NC(=O)Nc3ccc(Cl)c(C(F)(F)F)c3)c(F)c2)ccn1 [REGORAFENIB]	0.832 µM (active)
C[C@@H](c1ccc2nccn2c1)n1nnc2ncc(-c3cnn(C)c3)nc21 [SAVOLITINIB]	> 30 µM (inactive)

biological target: T1, Electron transfer flavoprotein subunit beta (Homo sapiens, UniProt P38117)
T1 sequence (P38117 whole entry): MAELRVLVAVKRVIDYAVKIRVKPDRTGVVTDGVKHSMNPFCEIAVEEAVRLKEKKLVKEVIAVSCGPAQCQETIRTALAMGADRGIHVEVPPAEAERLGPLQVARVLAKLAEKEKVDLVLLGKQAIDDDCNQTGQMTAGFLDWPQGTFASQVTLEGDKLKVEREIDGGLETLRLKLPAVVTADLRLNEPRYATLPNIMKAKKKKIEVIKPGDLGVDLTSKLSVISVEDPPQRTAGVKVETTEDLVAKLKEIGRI

SMILES	Kd
CNC(=O)c1ccc(C)c(-n2c(C)cc(OCc3ccc(F)cc3F)c(Br)c2=O)c1 [PH-797804]	> 30 µM (inactive)
CNC(=O)c1cc(Oc2ccc(NC(=O)Nc3ccc(Cl)c(C(F)(F)F)c3)c(F)c2)ccn1 [REGORAFENIB]	> 30 µM (inactive)
C[C@@H](c1ccc2nccn2c1)n1nnc2ncc(-c3cnn(C)c3)nc21 [SAVOLITINIB]	> 30 µM (inactive)

biological target: T2, Phenylalanine--tRNA ligase beta subunit (Homo sapiens, UniProt Q9NSD9)
T2 sequence (Q9NSD9 whole entry): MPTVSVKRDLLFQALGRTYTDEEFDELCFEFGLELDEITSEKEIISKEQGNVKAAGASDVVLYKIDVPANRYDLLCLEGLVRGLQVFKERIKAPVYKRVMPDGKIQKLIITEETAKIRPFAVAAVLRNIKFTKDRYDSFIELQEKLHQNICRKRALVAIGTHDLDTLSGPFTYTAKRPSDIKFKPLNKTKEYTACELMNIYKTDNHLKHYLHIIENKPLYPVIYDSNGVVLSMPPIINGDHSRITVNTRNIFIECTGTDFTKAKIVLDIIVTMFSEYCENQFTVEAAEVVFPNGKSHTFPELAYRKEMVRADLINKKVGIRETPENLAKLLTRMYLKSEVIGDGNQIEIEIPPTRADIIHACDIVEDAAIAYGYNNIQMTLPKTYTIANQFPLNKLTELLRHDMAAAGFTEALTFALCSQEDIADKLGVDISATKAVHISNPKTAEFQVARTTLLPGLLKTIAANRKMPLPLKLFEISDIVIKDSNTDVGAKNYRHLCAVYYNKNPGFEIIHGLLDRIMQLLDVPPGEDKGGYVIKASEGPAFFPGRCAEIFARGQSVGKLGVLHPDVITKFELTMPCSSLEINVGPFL

SMILES	Kd
CNC(=O)c1ccc(C)c(-n2c(C)cc(OCc3ccc(F)cc3F)c(Br)c2=O)c1 [PH-797804]	> 30 µM (inactive)
CNC(=O)c1cc(Oc2ccc(NC(=O)Nc3ccc(Cl)c(C(F)(F)F)c3)c(F)c2)ccn1 [REGORAFENIB]	> 30 µM (inactive)
C[C@@H](c1ccc2nccn2c1)n1nnc2ncc(-c3cnn(C)c3)nc21 [SAVOLITINIB]	> 30 µM (inactive)

biological target: Putative heat shock protein HSP 90-beta 2 (Homo sapiens, UniProt Q58FF8)

SMILES	Kd
CNC(=O)c1ccc(C)c(-n2c(C)cc(OCc3ccc(F)cc3F)c(Br)c2=O)c1 [PH-797804]	> 30 µM (inactive)
C[C@@H](c1ccc2nccn2c1)n1nnc2ncc(-c3cnn(C)c3)nc21 [SAVOLITINIB]	> 30 µM (inactive)

biological target: Inosine-5'-monophosphate dehydrogenase 2 (Homo sapiens, UniProt P12268)

SMILES	Kd
CNC(=O)c1ccc(C)c(-n2c(C)cc(OCc3ccc(F)cc3F)c(Br)c2=O)c1 [PH-797804]	> 30 µM (inactive)
CNC(=O)c1cc(Oc2ccc(NC(=O)Nc3ccc(Cl)c(C(F)(F)F)c3)c(F)c2)ccn1 [REGORAFENIB]	> 30 µM (inactive)
C[C@@H](c1ccc2nccn2c1)n1nnc2ncc(-c3cnn(C)c3)nc21 [SAVOLITINIB]	> 30 µM (inactive)

biological target: Interleukin-1 receptor-associated kinase 1 (Homo sapiens, UniProt P51617)

SMILES	Kd
CNC(=O)c1ccc(C)c(-n2c(C)cc(OCc3ccc(F)cc3F)c(Br)c2=O)c1 [PH-797804]	> 30 µM (inactive)
CNC(=O)c1cc(Oc2ccc(NC(=O)Nc3ccc(Cl)c(C(F)(F)F)c3)c(F)c2)ccn1 [REGORAFENIB]	> 30 µM (inactive)
C[C@@H](c1ccc2nccn2c1)n1nnc2ncc(-c3cnn(C)c3)nc21 [SAVOLITINIB]	> 30 µM (inactive)

biological target: Mitogen-activated protein kinase kinase kinase 4 (Homo sapiens, UniProt Q9Y6R4)
Sequence (Q9Y6R4 whole entry): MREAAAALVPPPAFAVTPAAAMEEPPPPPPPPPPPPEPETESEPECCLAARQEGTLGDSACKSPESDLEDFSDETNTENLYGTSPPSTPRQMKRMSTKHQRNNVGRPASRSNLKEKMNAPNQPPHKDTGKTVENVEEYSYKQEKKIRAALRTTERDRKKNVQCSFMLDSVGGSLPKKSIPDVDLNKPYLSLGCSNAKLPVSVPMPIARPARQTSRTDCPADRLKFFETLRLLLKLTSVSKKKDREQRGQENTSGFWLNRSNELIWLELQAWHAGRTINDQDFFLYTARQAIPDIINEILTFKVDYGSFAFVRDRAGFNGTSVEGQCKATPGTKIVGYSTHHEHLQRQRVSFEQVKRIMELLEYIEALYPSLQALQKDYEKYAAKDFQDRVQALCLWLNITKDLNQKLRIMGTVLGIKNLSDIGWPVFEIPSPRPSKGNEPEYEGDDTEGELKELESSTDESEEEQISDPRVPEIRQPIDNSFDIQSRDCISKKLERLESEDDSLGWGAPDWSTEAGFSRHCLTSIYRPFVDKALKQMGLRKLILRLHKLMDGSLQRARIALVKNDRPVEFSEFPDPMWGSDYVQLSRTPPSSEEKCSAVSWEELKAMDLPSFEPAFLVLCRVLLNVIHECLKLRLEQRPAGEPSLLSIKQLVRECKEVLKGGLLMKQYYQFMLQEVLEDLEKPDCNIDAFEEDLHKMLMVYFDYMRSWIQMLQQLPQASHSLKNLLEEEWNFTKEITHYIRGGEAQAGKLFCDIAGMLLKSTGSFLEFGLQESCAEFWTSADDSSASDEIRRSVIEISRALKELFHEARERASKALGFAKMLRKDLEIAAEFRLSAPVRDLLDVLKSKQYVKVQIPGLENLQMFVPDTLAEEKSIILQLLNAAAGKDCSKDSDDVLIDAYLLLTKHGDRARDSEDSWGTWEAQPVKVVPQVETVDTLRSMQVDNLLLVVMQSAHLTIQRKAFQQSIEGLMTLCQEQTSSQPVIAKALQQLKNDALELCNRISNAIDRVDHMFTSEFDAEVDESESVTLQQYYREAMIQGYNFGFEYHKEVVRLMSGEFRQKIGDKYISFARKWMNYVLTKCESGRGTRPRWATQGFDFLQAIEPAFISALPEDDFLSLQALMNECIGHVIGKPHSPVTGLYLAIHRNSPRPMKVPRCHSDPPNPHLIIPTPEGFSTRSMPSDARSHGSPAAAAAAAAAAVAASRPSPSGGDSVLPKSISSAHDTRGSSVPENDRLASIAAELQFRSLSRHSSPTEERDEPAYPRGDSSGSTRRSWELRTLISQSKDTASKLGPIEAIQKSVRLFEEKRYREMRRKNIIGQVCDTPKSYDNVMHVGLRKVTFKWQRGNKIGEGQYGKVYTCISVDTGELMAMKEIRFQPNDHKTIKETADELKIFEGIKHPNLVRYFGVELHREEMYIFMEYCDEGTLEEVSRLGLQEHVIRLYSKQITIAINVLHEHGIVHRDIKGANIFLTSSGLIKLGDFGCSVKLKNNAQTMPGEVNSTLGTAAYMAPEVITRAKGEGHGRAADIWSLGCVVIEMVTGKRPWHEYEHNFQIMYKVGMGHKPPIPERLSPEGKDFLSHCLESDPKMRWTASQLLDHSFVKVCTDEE

SMILES	Kd
CNC(=O)c1ccc(C)c(-n2c(C)cc(OCc3ccc(F)cc3F)c(Br)c2=O)c1 [PH-797804]	> 30 µM (inactive)
CNC(=O)c1cc(Oc2ccc(NC(=O)Nc3ccc(Cl)c(C(F)(F)F)c3)c(F)c2)ccn1 [REGORAFENIB]	> 30 µM (inactive)
C[C@@H](c1ccc2nccn2c1)n1nnc2ncc(-c3cnn(C)c3)nc21 [SAVOLITINIB]	> 30 µM (inactive)

biological target: Myosin-14 (Homo sapiens, UniProt Q7Z406)
Sequence (Q7Z406 whole entry): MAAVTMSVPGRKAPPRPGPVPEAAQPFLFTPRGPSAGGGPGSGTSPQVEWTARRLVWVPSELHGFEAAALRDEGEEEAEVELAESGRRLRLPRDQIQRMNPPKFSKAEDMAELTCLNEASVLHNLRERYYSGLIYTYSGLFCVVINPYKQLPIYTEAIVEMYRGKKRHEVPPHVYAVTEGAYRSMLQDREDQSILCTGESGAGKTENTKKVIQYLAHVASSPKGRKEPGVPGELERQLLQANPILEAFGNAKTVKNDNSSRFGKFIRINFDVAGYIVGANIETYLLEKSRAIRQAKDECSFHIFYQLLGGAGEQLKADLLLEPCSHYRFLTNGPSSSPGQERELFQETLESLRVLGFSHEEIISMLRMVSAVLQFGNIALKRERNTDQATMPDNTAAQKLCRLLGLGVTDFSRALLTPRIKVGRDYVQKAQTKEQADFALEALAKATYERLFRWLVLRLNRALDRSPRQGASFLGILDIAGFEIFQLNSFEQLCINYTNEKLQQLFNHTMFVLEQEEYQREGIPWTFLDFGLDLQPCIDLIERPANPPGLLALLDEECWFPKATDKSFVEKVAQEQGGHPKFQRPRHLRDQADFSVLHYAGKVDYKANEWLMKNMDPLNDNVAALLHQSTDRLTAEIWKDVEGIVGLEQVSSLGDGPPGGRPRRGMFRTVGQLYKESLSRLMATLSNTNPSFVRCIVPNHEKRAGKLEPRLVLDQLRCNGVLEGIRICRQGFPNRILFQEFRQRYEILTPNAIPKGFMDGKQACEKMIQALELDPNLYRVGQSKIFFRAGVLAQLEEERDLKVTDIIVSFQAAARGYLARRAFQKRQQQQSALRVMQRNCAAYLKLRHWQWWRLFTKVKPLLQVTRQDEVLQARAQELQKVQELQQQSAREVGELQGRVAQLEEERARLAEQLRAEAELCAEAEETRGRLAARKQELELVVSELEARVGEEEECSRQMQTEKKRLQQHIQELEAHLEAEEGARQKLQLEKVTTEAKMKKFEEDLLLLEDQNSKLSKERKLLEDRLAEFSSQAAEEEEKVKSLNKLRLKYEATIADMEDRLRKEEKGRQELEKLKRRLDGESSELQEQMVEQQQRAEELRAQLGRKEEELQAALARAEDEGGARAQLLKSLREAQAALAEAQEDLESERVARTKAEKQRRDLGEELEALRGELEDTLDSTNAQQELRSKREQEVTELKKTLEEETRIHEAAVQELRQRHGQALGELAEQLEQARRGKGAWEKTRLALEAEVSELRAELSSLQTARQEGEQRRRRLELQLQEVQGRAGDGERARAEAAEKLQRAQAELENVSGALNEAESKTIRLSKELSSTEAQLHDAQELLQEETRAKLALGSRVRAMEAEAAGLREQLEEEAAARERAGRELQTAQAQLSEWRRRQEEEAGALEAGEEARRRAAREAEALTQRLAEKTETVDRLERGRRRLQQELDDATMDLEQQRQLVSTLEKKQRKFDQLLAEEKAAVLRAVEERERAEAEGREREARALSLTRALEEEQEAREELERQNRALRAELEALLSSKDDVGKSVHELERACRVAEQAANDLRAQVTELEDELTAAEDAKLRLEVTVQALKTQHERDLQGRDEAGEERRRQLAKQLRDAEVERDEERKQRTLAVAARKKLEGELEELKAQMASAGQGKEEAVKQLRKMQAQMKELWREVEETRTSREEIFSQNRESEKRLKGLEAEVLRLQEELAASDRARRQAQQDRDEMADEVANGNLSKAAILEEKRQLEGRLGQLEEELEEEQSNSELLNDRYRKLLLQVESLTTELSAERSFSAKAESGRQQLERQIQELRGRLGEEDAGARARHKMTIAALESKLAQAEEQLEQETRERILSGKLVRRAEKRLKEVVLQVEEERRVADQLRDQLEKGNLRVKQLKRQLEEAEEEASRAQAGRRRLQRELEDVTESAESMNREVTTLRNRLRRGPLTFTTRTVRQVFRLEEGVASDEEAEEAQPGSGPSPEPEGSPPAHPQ

SMILES	Kd
CNC(=O)c1ccc(C)c(-n2c(C)cc(OCc3ccc(F)cc3F)c(Br)c2=O)c1 [PH-797804]	> 30 µM (inactive)
CNC(=O)c1cc(Oc2ccc(NC(=O)Nc3ccc(Cl)c(C(F)(F)F)c3)c(F)c2)ccn1 [REGORAFENIB]	> 30 µM (inactive)
C[C@@H](c1ccc2nccn2c1)n1nnc2ncc(-c3cnn(C)c3)nc21 [SAVOLITINIB]	> 30 µM (inactive)

biological target: Protein kinase C alpha type (Homo sapiens, UniProt P17252)

SMILES	Kd
CNC(=O)c1ccc(C)c(-n2c(C)cc(OCc3ccc(F)cc3F)c(Br)c2=O)c1 [PH-797804]	> 30 µM (inactive)
CNC(=O)c1cc(Oc2ccc(NC(=O)Nc3ccc(Cl)c(C(F)(F)F)c3)c(F)c2)ccn1 [REGORAFENIB]	> 30 µM (inactive)
C[C@@H](c1ccc2nccn2c1)n1nnc2ncc(-c3cnn(C)c3)nc21 [SAVOLITINIB]	> 30 µM (inactive)

biological target: 26S proteasome regulatory subunit 6B (Homo sapiens, UniProt P43686)

SMILES	Kd
CNC(=O)c1ccc(C)c(-n2c(C)cc(OCc3ccc(F)cc3F)c(Br)c2=O)c1 [PH-797804]	> 30 µM (inactive)
CNC(=O)c1cc(Oc2ccc(NC(=O)Nc3ccc(Cl)c(C(F)(F)F)c3)c(F)c2)ccn1 [REGORAFENIB]	> 30 µM (inactive)
C[C@@H](c1ccc2nccn2c1)n1nnc2ncc(-c3cnn(C)c3)nc21 [SAVOLITINIB]	> 30 µM (inactive)

biological target: T3, Serine/threonine-protein kinase STK11 (Homo sapiens, UniProt Q15831)
T3 sequence (Q15831 whole entry): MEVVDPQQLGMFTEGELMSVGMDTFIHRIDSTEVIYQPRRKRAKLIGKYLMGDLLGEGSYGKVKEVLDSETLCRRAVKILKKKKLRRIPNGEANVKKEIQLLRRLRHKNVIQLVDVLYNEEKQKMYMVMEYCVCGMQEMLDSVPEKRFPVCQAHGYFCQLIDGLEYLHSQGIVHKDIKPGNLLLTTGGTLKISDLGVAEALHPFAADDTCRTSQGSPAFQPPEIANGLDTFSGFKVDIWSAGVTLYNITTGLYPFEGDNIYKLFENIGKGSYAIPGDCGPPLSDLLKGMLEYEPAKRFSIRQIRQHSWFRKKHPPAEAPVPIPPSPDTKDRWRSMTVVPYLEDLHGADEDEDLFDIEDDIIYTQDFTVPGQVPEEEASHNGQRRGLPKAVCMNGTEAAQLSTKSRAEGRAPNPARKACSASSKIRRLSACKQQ

SMILES	Kd
CNC(=O)c1ccc(C)c(-n2c(C)cc(OCc3ccc(F)cc3F)c(Br)c2=O)c1 [PH-797804]	> 30 µM (inactive)
CNC(=O)c1cc(Oc2ccc(NC(=O)Nc3ccc(Cl)c(C(F)(F)F)c3)c(F)c2)ccn1 [REGORAFENIB]	> 30 µM (inactive)

biological target: Wee1-like protein kinase (Homo sapiens, UniProt P30291)
Sequence (P30291 whole entry): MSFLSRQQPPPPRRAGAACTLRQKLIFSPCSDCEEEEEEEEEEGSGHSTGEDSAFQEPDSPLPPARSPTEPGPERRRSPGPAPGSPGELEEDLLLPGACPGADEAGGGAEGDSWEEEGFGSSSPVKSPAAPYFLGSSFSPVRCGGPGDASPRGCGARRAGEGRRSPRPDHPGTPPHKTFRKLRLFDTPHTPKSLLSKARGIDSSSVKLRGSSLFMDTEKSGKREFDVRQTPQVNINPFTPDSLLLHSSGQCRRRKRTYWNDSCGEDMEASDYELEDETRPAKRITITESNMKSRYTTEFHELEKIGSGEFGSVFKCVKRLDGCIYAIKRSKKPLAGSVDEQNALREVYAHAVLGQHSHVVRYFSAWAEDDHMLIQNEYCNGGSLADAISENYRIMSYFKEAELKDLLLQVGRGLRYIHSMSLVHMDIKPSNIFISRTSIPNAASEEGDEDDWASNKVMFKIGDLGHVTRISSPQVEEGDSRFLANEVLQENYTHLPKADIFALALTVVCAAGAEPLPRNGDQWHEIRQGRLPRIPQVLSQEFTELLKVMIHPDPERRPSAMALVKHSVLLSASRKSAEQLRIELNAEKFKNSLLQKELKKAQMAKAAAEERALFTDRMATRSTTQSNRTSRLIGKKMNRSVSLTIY

SMILES	Kd
CNC(=O)c1ccc(C)c(-n2c(C)cc(OCc3ccc(F)cc3F)c(Br)c2=O)c1 [PH-797804]	> 30 µM (inactive)
CNC(=O)c1cc(Oc2ccc(NC(=O)Nc3ccc(Cl)c(C(F)(F)F)c3)c(F)c2)ccn1 [REGORAFENIB]	> 30 µM (inactive)
C[C@@H](c1ccc2nccn2c1)n1nnc2ncc(-c3cnn(C)c3)nc21 [SAVOLITINIB]	> 30 µM (inactive)

biological target: T4, Tyrosine--tRNA ligase, cytoplasmic (Homo sapiens, UniProt P54577)
T4 sequence (P54577 whole entry): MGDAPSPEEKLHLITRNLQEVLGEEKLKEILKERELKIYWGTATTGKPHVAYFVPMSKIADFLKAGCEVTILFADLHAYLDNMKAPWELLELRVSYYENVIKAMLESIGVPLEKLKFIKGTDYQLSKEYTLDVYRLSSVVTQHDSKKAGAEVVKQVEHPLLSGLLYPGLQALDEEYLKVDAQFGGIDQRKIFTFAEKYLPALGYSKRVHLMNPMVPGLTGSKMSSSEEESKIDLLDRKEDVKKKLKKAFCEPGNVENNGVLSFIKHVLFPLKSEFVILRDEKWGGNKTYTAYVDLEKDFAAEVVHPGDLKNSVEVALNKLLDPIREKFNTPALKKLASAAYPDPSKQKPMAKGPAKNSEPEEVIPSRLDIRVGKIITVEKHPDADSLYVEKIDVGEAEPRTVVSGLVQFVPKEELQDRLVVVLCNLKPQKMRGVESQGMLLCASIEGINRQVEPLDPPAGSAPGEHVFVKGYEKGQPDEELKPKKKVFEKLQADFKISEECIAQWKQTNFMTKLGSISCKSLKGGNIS

SMILES	Kd
CNC(=O)c1ccc(C)c(-n2c(C)cc(OCc3ccc(F)cc3F)c(Br)c2=O)c1 [PH-797804]	> 30 µM (inactive)
CNC(=O)c1cc(Oc2ccc(NC(=O)Nc3ccc(Cl)c(C(F)(F)F)c3)c(F)c2)ccn1 [REGORAFENIB]	> 30 µM (inactive)
C[C@@H](c1ccc2nccn2c1)n1nnc2ncc(-c3cnn(C)c3)nc21 [SAVOLITINIB]	> 30 µM (inactive)
